# Assays:
# 4T1 cells = assay: 3D spheroid size assay; assay type: cell-based, murine; settings: 72 h
# Experimental: Anchorage-dependent, spheroid, and soft agar cell growth assays: Cells (2×10^5) were plated per 35 mm well under adherent (tissue culture-treated) and non-adherent conditions (poly-HEMA-coated) in 6-well plates (Costar) in growth media. Between 24 and 168 h, all cells were collected, a single cell suspension was prepared by limited trypsin-EDTA treatment, and viable cells were enumerated by trypan blue staining and counting (ViCell XR, Beckman). For spheroid area determination, cells were imaged after 72 h in phase contrast using an Olympus IX51 microscope. Area was calculated using Image J software (version 1.43). For soft agar assays, 48-well plates were coated with a 1:4 mix of 2% agar (EM Science) in 0.2 ml growth media (bottom layer). 5×10^4 cells were plated per well (in triplicate) in a mixture of 0.3% agar in 0.2 ml growth media (top layer). […] After 10 days, colonies were imaged in phase contrast, enumerated by counting 9 fields (3 fields per well), and total area determined using Image J. For all analyses, experimental points were performed in triplicate and were experiments were repeated at least two times.
# [1] = target: T1, FAK Tyr-397 phosphorylation (Mus musculus, UniProt P34152); assay: Anti-phospho-specific immunoblotting of FAK pY397 in 4T1 cells; assay type: cell-based, murine
# T1 construct: endogenous in cells; host or cells: 4T1 murine mammary carcinoma cells
# T1 sequence (P34152 whole entry): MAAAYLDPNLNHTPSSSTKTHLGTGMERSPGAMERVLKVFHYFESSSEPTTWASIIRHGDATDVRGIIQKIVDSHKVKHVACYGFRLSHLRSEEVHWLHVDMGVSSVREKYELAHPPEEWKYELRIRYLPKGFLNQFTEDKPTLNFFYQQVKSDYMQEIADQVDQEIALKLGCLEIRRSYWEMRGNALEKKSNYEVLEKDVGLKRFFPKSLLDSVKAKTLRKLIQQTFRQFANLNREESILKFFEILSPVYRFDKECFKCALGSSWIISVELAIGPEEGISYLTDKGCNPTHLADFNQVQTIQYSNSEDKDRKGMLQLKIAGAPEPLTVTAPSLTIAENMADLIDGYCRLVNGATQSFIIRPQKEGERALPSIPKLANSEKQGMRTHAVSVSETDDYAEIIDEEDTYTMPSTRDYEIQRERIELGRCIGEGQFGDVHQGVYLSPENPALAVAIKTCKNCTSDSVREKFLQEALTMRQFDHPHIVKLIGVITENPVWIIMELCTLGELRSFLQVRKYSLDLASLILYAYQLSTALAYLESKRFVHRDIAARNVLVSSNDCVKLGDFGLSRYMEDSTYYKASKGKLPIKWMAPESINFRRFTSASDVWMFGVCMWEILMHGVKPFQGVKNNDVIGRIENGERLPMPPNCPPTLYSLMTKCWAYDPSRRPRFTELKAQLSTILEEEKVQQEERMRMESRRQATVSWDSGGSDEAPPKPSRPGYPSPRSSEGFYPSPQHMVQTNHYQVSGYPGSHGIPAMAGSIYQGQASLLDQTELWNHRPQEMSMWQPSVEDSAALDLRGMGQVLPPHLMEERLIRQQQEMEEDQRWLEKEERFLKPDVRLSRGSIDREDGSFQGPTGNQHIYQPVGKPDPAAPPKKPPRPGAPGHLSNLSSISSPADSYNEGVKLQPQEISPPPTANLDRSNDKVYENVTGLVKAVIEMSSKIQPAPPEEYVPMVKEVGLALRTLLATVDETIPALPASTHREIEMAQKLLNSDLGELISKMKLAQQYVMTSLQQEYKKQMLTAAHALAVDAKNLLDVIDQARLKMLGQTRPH
# Source text: Immunoblotting: Protein extracts of cells were made using lysis buffer containing 1% Triton X-100, 1% sodium deoxycholate, and 0.1% SDS and were separated by 4-12% SDS-PAGE (sodium dodecyl sulfate polyacrylamide gel electrophoresis) and sequential immunoblotting performed as described in Mitra S K, Lim S T, Chi A, Schlaepfer D D. Intrinsic focal adhesion kinase activity controls orthotopic breast carcinoma metastasis via the regulation of urokinase plasminogen activator expression in a syngeneic tumor model. Oncogene 2006; 25:4429-40. Relative expression levels and phospho-specific antibody reactivity were measured by densitometry analyses of blots using Image J (version 1.42q). Inhibition of FAK and p130Cas tyrosine phosphorylation was quantified by calculating the ratio of pY397 FAK protein to total FAK. Similar analyses were performed for p130Cas using pY410 p130Cas and total p130Cas blot data.
# MDA-MB-231 cells = assay: Apoptosis assay of suspended cells (annexin V, flow cytometry); assay type: cell-based, human; settings: up to 10 μM, within 6 h
# Experimental: Quadrant gates were positioned based on cell autofluorescence (negative) staurosporine-treated (positive) controls. Apoptosis was calculated to be the percent of annexin V-positive cells.
# MDA-MB-231 tumors = assay: Orthotopic MDA-MB-231 breast carcinoma model; assay type: in vivo, NOD/SCID mice; settings: 0.5 mg/ml ad libitum
# Experimental: Orthotopic breast cancer models: One million 4T1 or MDA-MB-231 cells in 10 μl PBS were injected into the T4 mammary fat pad of 8-10 week old mice using a Hamilton syringe. […] Tumors were measured every 3-4 days with digital vernier calipers and tumor volume (mm^3) was calculated using the formula: V=axb^2/2 (a=length, mm; b=width, m) Body weight was measured weekly to assess toxicity. Lungs, spleen, and primary tumors were surgically removed and weighed. Tumors sections were homogenized in protein lysis buffer for immunoblotting or placed in Optimal Cutting Temperature (OCT) compound (Tissue Tek), frozen in liquid nitrogen, thin sectioned (7 μM) using a cryostat (Leica 3050S), and mounted onto glass slides.
# Metastatic tumor burden (number of metastatic lesion or mean pixel volume) was determined and groups (Negligible, Moderate, and High) were separated based upon numbers distribution. After imaging, lungs were fixed in Bouin's solution (Sigma), paraffin embedded, sectioned, and stained with hematoxylin and eosin (H&E) for histological evaluation. Images were acquired using a differential interference contrast-equipped Olympus IX81 inverted microscope and an Olympus DP71 digital color camera using Slidebook (v5.0) software. For MDA-MB-231 tumor metastasis studies, lungs were inflated by intratracheal injection of a 1:1 solution of OCT in sterile water using a 25 gauge needle. Lungs were resected, embedded in OCT, and frozen in liquid nitrogen.
# c-Src (pY416 Src) = target: T2, c-Src (pY416 Src) (Mus musculus, UniProt P05480); assay: Phospho-specific immunoblotting of Src pY416 in 4T1 cells; assay type: cell-based, murine
# T2 construct: endogenous in cells; host or cells: 4T1 murine mammary carcinoma cells
smiles,measurement,setting,value
CNC(=O)c1ccccc1Nc1cc(Nc2ccc(N3CCOCC3)cc2OC)ncc1C(F)(F)F [PND-1186],reduction in average spheroid size,4T1 cells; 0.1 μM,~3 fold
same,concentration of maximal effect on spheroid size,4T1 cells,0.2 µM
same,FAK pY397 phosphorylation in 4T1 spheroids,"[1]; 0.1 μM, 3D spheroids",potently inhibited
same,"FAK pY397 phosphorylation, adherent and suspended cells","[1]; 0.1 μM, 24 h",sufficient to inhibit FAK pY397 phosphorylation
same,maximal reduction of FAK pY397 phosphorylation,"[1]; 4T1 cells, 0.1 to 1.0 μM, 1 h",~80%
same,MDA-MB-231 apoptosis in suspension,MDA-MB-231 cells,did not promote increased MDA-MB-231 apoptosis
same,FAK pY397 phosphorylation in MDA-MB-231 tumors,MDA-MB-231 tumors,significantly reduce FAK pY397 phosphorylation
same,reduction of number of metastatic lung lesions,MDA-MB-231 tumors,> 3.5 fold
same,tumor size by Day 27 (caliper),MDA-MB-231 tumors; 15 days of administration,control tumors were significantly larger
same,decrease in final tumor weight,MDA-MB-231 tumors; Day 70,> 5 fold
same,Src pY416 and Src expression levels in spheroids,c-Src (pY416 Src); PND-1186-treated 3D spheroids,no change
same,Src pY416 phosphorylation,"c-Src (pY416 Src); adherent 4T1 cells, 1 h, PND-1186 to 1 μM",did not affect c-Src activity

# — US20120196858A1, “METHOD OF PROMOTING APOPTOSIS AND INHIBITING METASTASIS” (Poniard Pharmaceuticals ,Inc., priority 2009, published 2012)
